The nature of the data set: Acute toxicity on mice. Conditions: mouse, in vivo, po; ICR-slc male mice, 4 weeks old. On the procedure:
The compounds of Examples 4, 20 and 42 were tested for acute toxicity on mice^*.
The term LD50 denotes the dose at which mortality reaches 50%. Low readings indicate greater toxicity, high ones lower toxicity. Consider `CON=C(C(=O)NC1C(=O)N2C(C(=O)OCC(C)=Cc3ccccc3)=CCS[C@H]12)c1csc(N)n1` (stereo partly drawn) [Example 4, 2-Methyl-3-phenyl-2-propenyl 7-[2-(2-amino-4-thiazolyl)-2-methoxyiminoacetamido]-3-cephem-4-carboxylate], for which the LD50 is > 5000 mg/kg.
To `CON=C(C(=O)NC1C(=O)N2C(C(=O)OCC=C(C)C)=CCS[C@H]12)c1csc(N)n1` (stereo partly drawn) [Example 20, 3-Methyl-2-butenyl 7-[2-(2-amino-4-thiazolyl)-2-methoxyiminoacetamido]-3-cephem-4-carboxylate] belongs > 5000 mg/kg.
To `CC=C(C)COC(=O)C1=CCS[C@@H]2C(NC(=O)C(=NOC)c3csc(N)n3)C(=O)N12` (stereo partly drawn) [Example 42, 2-Methyl-2-butenyl 7-[2-(2-amino-4-thiazolyl)-2-methoxyiminoacetamido]-3-cephem-4-carboxylate] belongs > 5000 mg/kg.
